This is an account of results in US20230151034A1 (COCRYSTAL PHARMA, INC., priority 2020, published 2023).

A word on the IC50: it is the concentration that inhibits the measured activity by half.

Read-outs that look alike come from different tables or passages of the source. Where a SMILES comes first, the peptide text is derived from it. [ ]: non-standard residue; d: D form. The star is where a group is joined. ξ: configuration not given here. ξαMeE = CC(N)(CCC(=O)O)C(=O)O; Nonanoyl = CCCCCCCCC(=O)*

For test [1], the target named is HuNV GGII.4 Norovirus protease (Norovirus GII.4 (human norovirus genogroup II genotype 4), UniProt P54634). In words: Norovirus protease FRET assay (HuNV GGII.4). In kind it is biochemical.
Chain of HuNV GGII.4 Norovirus protease (P54634 1009-1189): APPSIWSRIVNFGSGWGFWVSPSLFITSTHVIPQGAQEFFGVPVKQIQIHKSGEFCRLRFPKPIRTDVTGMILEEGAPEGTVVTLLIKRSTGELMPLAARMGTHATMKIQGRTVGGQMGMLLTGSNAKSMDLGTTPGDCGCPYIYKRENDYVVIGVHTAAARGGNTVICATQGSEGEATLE
In a further test the target is SARS2 protease (Severe acute respiratory syndrome coronavirus 2, UniProt P0DTD1). In words: SARS-CoV-2 protease inhibition assay (SARS2 FRET protease assay). It counts as biochemical. The method in brief:
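SARS-CoV-2 protease (25 nM) was incubated for 30 min at 30 °C with 1.3 μM quenched 5-FAM/TAMRA peptide substrate and compound (3-fold dilutions, 20 μM–1.0 nM). The buffer was 20 mM HEPES-Na pH 7, 120 mM NaCl, 0.4 mM EDTA, 0.01% Triton, 5% glycerol and 4 mM DTT. Fluorescence was read at ex 473 and em 519 nm, and IC50 was derived.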

Test [2] has as its target Norwalk GGI.1 Norovirus protease (Norovirus, UniProt Q83883). In words: Noro-Norwalk FRET protease assay (Norwalk GGI.1). In kind it is biochemical, Norwalk virus. The protocol: Viral protease assays: The antiviral activities of inhibitors were determined by FRET (Fluorescence Resonance Energy Transfer) assay. Purified viral protease was incubated with the protease substrate peptide (Edans-DFHLQ/GP-Dabcyl) and inhibitor, and IC50 values were subsequently determined by the fluorescence signals.
The Noro-Norwalk FRET protease assay was performed in 50 mM HEPES-Na pH 8, 50 mM NaCl, 0.4 mM EDTA, 4% glycerol, and 6 mM DTT. A self-quenching peptide substrate [5-FAM]-[…]-[TAMRA] was custom synthesized by Anaspec. Compounds were diluted in 3-fold serial dilutions to final concentrations of 200 μM to 10.2 nM. Noro protease was added to a final concentration of 1-7 μM, depending on the enzyme activity level, and the peptide substrate was added to a final concentration of 10 μM. The assay was incubated 90 minutes at 37° C. and read in a Perkin Elmer Envision with excitation at 473 nm and emission measurement at 519 nm.

Where [3] appears, read: Table C, FRET protease assay, read-out: HuNV GGII.4 IC50.
Setting [4] is: Table E, SARS-CoV-2 protease inhibition, read-out: IC50.
The mark [5] stands for this setting: Table C, FRET protease assay, read-out: Norwalk GGI.1 IC50.
Setting [6] is: Table D, FRET protease assay, read-out: HuNV GGII.4 IC50.
Setting [7] is: Table D, FRET protease assay, read-out: Norwalk GGI.1 IC50.

Chain of Norwalk GGI.1 Norovirus protease (Q83883 1101-1281): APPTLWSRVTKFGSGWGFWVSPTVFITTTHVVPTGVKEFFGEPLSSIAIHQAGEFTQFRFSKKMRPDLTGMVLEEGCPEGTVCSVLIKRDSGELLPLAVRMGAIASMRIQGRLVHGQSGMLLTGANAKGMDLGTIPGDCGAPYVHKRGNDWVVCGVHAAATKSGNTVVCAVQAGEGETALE

As for `CN(CCc1cccc(Cl)c1)C(=O)CC[C@@H](C=O)NC(=O)[C@H](CC1CCCCC1)NC(=O)OCc1cccc(Cl)c1` (stereo in doubt) [Compound A33, 3-Chlorobenzyl ((S)-1-(((S)-5-((3-chlorophenethyl)(methyl)amino)-1,5-dioxopentan-2-yl)amino)-3-cyclohexyl-1-oxopropan-2-yl)carbamate], the values for the IC50 (in test [1] (setting [3]); on SARS2 protease (setting [4]); in test [2] (setting [5])) were over 200 µM, over 200 µM and 117 µM, respectively.
For the molecule `CN(C(=O)CC[C@@H](C=O)NC(=O)[C@H](CC1CCCCC1)NC(=O)OCc1cccc(Cl)c1)c1ccccc1` [Compound A19, 3-Chlorobenzyl ((S)-3-cyclohexyl-1-(((S)-5-(methyl (phenyl)amino)-1,5-dioxopentan-2-yl)amino)-1-oxopropan-2-yl) carbamate], the IC50 in test [1] (setting [3]) turned out to be 3.3 µM; on SARS2 protease (setting [4]), 40.3 µM; in test [2] (setting [5]) it was 1 µM.
For `CN1C(=O)CCC(NC(=O)[C@H](CC2CCCCC2)NC(=O)OCc2cccc(Cl)c2)C1O` (stereo partly drawn) [Compound A2, 3-chlorobenzyl ((2S)-3-cyclohexyl-1-((2-hydroxy-1-methyl-6-oxopiperidin-3-yl)amino)-1-oxopropan-2-yl)carbamate] the same measures were 127 µM, over 200 µM and 169 µM.
On to `CCCCCCCCC(=O)N[C@@H](CC(C)C)C(=O)NC(C)(C=O)CCC(=O)N(C)C` (stereo partly drawn) [Compound A1, N-((2S)-1-((5-(dimethylamino)-2-methyl-1,5-dioxopentan-2-yl)amino)-4-methyl-1-oxopentan-2-yl)nonanamide] (Nonanoyl-Leu-[ξαMeE](NMe2)-aldehyde), for which the IC50 (in test [1] (setting [3]); on SARS2 protease (setting [4]); in test [2] (setting [5])) was over 200 µM in each case.
Consider `CCS(=O)(=O)NCCN(C)C(=O)CC[C@@H](C=O)NC(=O)[C@H](CC1CCCCC1)NC(=O)OCc1cccc(Cl)c1` (stereo in doubt) [Compound A38, 3-Chlorobenzyl ((S)-3-cyclohexyl-1-(((S)-5-((2-(ethylsulfonamido)ethyl)(methyl)amino)-1,5-dioxopentan-2-yl)amino)-1-oxopropan-2-yl)carbamate], for which the IC50 in test [1] (setting [3]) was 30.6 µM; at SARS2 protease (setting [4]), 36 µM; in test [2] (setting [5]), 10.1 µM.
As for `CCCC1CCCC/C=C/CC(C(=O)N(C)Cc2ccc(OC)cc2OC)C[C@@H](C(O)P(=O)(OCC)OCC)NC(=O)[C@H](CC(C)C)NC1=O` (stereo partly drawn) [Compound B25, Diethyl (((2S,5S,E)-7-((2,4-dimethoxybenzyl)(methyl)carbamoyl)-2-isobutyl-3,16-dioxo-15-propyl-1,4-diazacyclohexadec-9-en-5-yl)(hydroxy)methyl)phosphonate], the results for the IC50 (in test [1]; against SARS2 protease; in test [2]) were 177 µM, over 200 µM and 177 µM, respectively.
Turning to `CN(CCc1cccc(Cl)c1)C(=O)CC[C@@H](CO)NC(=O)[C@H](CC1CCCCC1)NC(=O)OCc1cccc(Cl)c1` [Compound A24, 3-Chlorobenzyl ((S)-1-(((S)-5-((3-chlorophenethyl)(methyl)amino)-1-hydroxy-5-oxopentan-2-yl)amino)-3-cyclohexyl-1-oxopropan-2-yl)carbamate], the values for the half-maximal inhibitory concentration (IC50) (in test [1] (setting [3]); on SARS2 protease (setting [4]); in test [2] (setting [5])) were 123 µM, over 200 µM and over 200 µM, respectively.
With `CCOP(=O)(OCC)C(O)[C@H](CCC(=O)N(C)c1ccccc1)NC(=O)[C@H](CC1CCCCC1)NC(=O)OCc1cccc(Cl)c1` (stereo partly drawn) [Compound A14, 3-Chlorobenzyl ((2S)-3-cyclohexyl-1-(((2S)-1-(diethoxyphosphoryl)-1-hydroxy-5-(methyl (phenyl)amino)-5-oxopentan-2-yl)amino)-1-oxopropan-2-yl) carbamate], the results for the IC50 (in test [1] (setting [3]); on SARS2 protease (setting [4]); in test [2] (setting [5])) were 70.1 µM, over 200 µM and 50.9 µM, respectively.
For `O=C[C@H](CCC(=O)N1CCCC(c2ccccc2)C1)NC(=O)[C@H](CC1CCCCC1)NC(=O)OCc1cccc(Cl)c1` (stereo in doubt) [Compound A53, 3-Chlorobenzyl ((2S)-3-cyclohexyl-1-(((2S)-1,5-dioxo-5-(3-phenylpiperidin-1-yl)pentan-2-yl)amino)-1-oxopropan-2-yl)carbamate] the same measures were 82.5 µM, 16.7 µM and 6.7 µM.
For `CN(CCc1ccccc1Cl)C(=O)CC[C@@H](C=O)NC(=O)[C@H](CC1CCCCC1)NC(=O)OCc1cccc(Cl)c1` [Compound A105, 3-Chlorobenzyl ((S)-1-(((S)-5-((2-chlorophenethyl)(methyl)amino)-1,5-dioxopentan-2-yl)amino)-3-cyclohexyl-1-oxopropan-2-yl)carbamate] the same measures were 155 µM, over 200 µM and 28.2 µM.
For the molecule `CCCCCCCC1CC/C=C/CC(C(=O)NC)C[C@@H](C(=O)N(C)OC)NC(=O)C(CC(C)C)NC(=O)O1` (single isomer, unassigned) [Compound B37], the half-maximal inhibitory concentration (IC50) (in test [1] (setting [6]); at SARS2 protease (setting [4]); in test [2] (setting [7])) was over 200 µM each time.
In the case of `CC(CN(C)C(=O)CC[C@@H](C=O)NC(=O)[C@H](CC1CCCCC1)NC(=O)OCc1cccc(Cl)c1)c1ccccc1` (stereo in doubt) [Compound A49, 3-Chlorobenzyl ((2S)-3-cyclohexyl-1-(((2S)-5-(methyl(2-phenylpropyl)amino)-1,5-dioxopentan-2-yl)amino)-1-oxopropan-2-yl)carbamate], the IC50 is 76.7 µM in test [1] (setting [3]), over 200 µM on SARS2 protease (setting [4]) and 15 µM in test [2] (setting [5]).
For `CON(C)C(=O)[C@H](CCC(=O)N(C)CCc1ccccc1Cl)NC(=O)[C@H](CC1CCCCC1)NC(=O)OCc1cccc(Cl)c1` (stereo in doubt) [Compound A39, 3-Chlorobenzyl ((S)-1-(((S)-5-((2-chlorophenethyl)(methyl)amino)-1-(methoxy(methyl)amino)-1,5-dioxopentan-2-yl)amino)-3-cyclohexyl-1-oxopropan-2-yl)carbamate] the same measures were 100 µM, 5.3 µM and 119 µM.
For `CCCCCN(C)C(=O)CC[C@H](NC(=O)[C@H](CC1CCCCC1)NC(=O)OCc1cccc(Cl)c1)C(=O)N(C)OC` [Compound A8, 3-chlorobenzyl ((S)-3-cyclohexyl-1-(((S)-1-(methoxy (methyl)amino)-5-(methyl(pentyl)amino)-1,5-dioxopentan-2-yl)amino)-1-oxopropan-2-yl)carbamate] the same measures were over 200 µM, 89.8 µM and over 200 µM.
As to `CCOP(=O)(OCC)C(O)[C@@H]1CC(C(=O)NC)C/C=C/CCC(Cc2ccccc2)OC(=O)N[C@@H](CC(C)C)C(=O)N1` (stereo partly drawn) [Compound B27, Diethyl (((4S,7S,E)-15-benzyl-4-isobutyl-9-(methylcarbamoyl)-2,5-dioxo-1-oxa-3,6-diazacyclopentadec-11-en-7-yl)(hydroxy)methyl)phosphonate], the figures for the IC50 (in test [1] (setting [6]); at SARS2 protease (setting [4]); in test [2] (setting [7])) were 57.9 µM, over 200 µM and 57.9 µM, respectively.
In the case of `CCOP(=O)(OCC)C(O)[C@H](CCC(=O)N(C)Cc1ccccc1)NC(=O)[C@H](CC1CCCCC1)NC(=O)OCc1cccc(Cl)c1` (stereo partly drawn) [Compound A13, 3-Chlorobenzyl ((2S)-1-(((2S)-5-(benzyl (methyl)amino)-1-(diethoxyphosphoryl)-1-hydroxy-5-oxopentan-2-yl)amino)-3-cyclohexyl-1-oxopropan-2-yl) carbamate], the IC50 in test [1] (setting [3]) was over 200 µM; at SARS2 protease (setting [4]) it was over 200 µM; in test [2] (setting [5]), 166 µM.
